In ChEMBL document CHEMBL5608199, “Quaternized antimicrobial peptide mimics based on harmane as potent anti-MRSA agents by multi-target mechanism covering cell wall, cell membrane and intracellular targets” (Eur J Med Chem, 2024):
In brackets after ≈: the same amount, converted by molar mass. Activity calls are given as the source filed them. The calls are words filed in the database; no cut-off is given here.

Legend:
Staphylococcus aureus [1] = experiment: Antibacterial activity against methicillin-resistant Staphylococcus aureus ATCC 43300 incubated for 18 hrs by two fold serial broth dilution method; type: functional
Staphylococcus aureus [2] = experiment: Antibacterial activity against methicillin-resistant Staphylococcus aureus CGMCC 1.12409 incubated for 18 hrs by two fold serial broth dilution method; type: functional
Staphylococcus aureus [3] = experiment: Antibacterial activity against Staphylococcus aureus CMCC 26003 incubated for 18 hrs by two fold serial broth dilution method; type: functional
Staphylococcus aureus [4] = experiment: Antibacterial activity against methicillin-resistant Staphylococcus aureus ATCC 33591 incubated for 18 hrs by two fold serial broth dilution method; type: functional
Staphylococcus aureus [5] = experiment: Antibacterial activity against Staphylococcus aureus ATCC 29213 incubated for 18 hrs by two fold serial broth dilution method; type: functional
Escherichia coli = experiment: Antibacterial activity against Escherichia coli ATCC 8739 incubated for 18 hrs by two fold serial broth dilution method; type: functional
Staphylococcus aureus [6] = experiment: Antibacterial activity against methicillin-resistant Staphylococcus aureus ATCC 33591 infected in cyclophosphamide treated female KM mouse skin infection model assessed as reduction in number of bacterial clones in skin at 3.3 mg/kg administered for 4 days and measured on day 5; type: functional, organism-based; conditions: time 5.0 day
Staphylococcus aureus [7] = experiment: Antibacterial activity against methicillin-resistant Staphylococcus aureus ATCC 33591 infected in cyclophosphamide treated female KM mouse skin infection model assessed as reduction in inflammatory cell infiltration at 3.3 mg/kg administered for 4 days and measured on day 5 by H and E staining based analysis; type: functional, organism-based; conditions: time 5.0 day

SMILES	MIC (Staphylococcus aureus [1]) [µg/mL]	MIC (Staphylococcus aureus [2]) [µg/mL]	MIC (Staphylococcus aureus [3]) [µg/mL]	MIC (Staphylococcus aureus [4]) [µg/mL]	MIC (Staphylococcus aureus [5]) [µg/mL]	MIC (Escherichia coli) [µg/mL]	Activity (Staphylococcus aureus [6])	Activity (Staphylococcus aureus [7])
CCCC[n+]1ccc2c3ccccc3n(CC[N+](C)(C)CCCC)c2c1C.[Br-].[Br-]	> 128	> 128	128	128	> 128	> 128	–	–
CN[C@H](CC(C)C)C(=O)N[C@H]1C(=O)N[C@@H](CC(N)=O)C(=O)N[C@H]2C(=O)N[C@H]3C(=O)N[C@H](C(=O)N[C@H](C(=O)O)c4cc(O)cc(O)c4-c4cc3ccc4O)[C@H](O)c3ccc(c(Cl)c3)Oc3cc2cc(c3O[C@@H]2O[C@H](CO)[C@@H](O)[C@H](O)[C@H]2O[C@H]2C[C@](C)(N)[C@H](O)[C@H](C)O2)Oc2ccc(cc2Cl)[C@H]1O [VANCOMYCIN]	–	–	0.25 (≈ 0.173 µM)	–	–	> 128	Active	Active
[2H]C([2H])([2H])[n+]1ccc2c([nH]c3ccccc32)c1C.[I-]	> 128	> 128	> 128	> 128	> 128	> 128	–	–
CC[N+](C)(CC)CCn1c2ccccc2c2cc[n+](C)c(C)c21.[I-].[I-]	> 128	> 128	> 128	> 128	> 128	> 128	–	–
Cc1c2c(cc[n+]1C)c1ccccc1n2CC[N+](C)(C)C.[I-].[I-]	> 128	> 128	> 128	> 128	> 128	> 128	–	–
Cc1nccc2c3ccccc3n(CCCCn3c4ccccc4c4ccnc(C)c43)c12	> 128	> 128	> 128	> 128	> 128	> 128	–	–
CCN(CC)CCn1c2ccccc2c2ccnc(C)c21	128 (≈ 455 µM)	> 128	128 (≈ 455 µM)	128 (≈ 455 µM)	128 (≈ 455 µM)	128 (≈ 455 µM)	–	–
Cc1nccc2c3ccccc3n(CCCCCCCCn3c4ccccc4c4ccnc(C)c43)c12	> 128	> 128	> 128	> 128	> 128	> 128	–	–
Cc1nccc2c3ccccc3n(CCCCCCn3c4ccccc4c4ccnc(C)c43)c12	> 128	> 128	> 128	> 128	> 128	> 128	–	–
CCCCC[n+]1ccc2c3ccccc3n(CC[N+](C)(C)CCCCC)c2c1C.[Br-].[Br-]	> 128	> 128	> 128	> 128	> 128	> 128	–	–
Cc1nccc2c3ccccc3n(CCCCCCCn3c4ccccc4c4ccnc(C)c43)c12	> 128	> 128	> 128	> 128	> 128	> 128	–	–
CCCC[n+]1ccc2c3ccccc3n(CCN(C)C)c2c1C.[Br-]	> 128	> 128	128	128	> 128	> 128	–	–
